Like-named read-outs stand apart in the source and are kept apart here. Blank lines part the entries; values can stand above or below the compound they belong to.
Experiments:
[1] = parameters: method as in PMID 21430657; conditions: endoxifen concentration >5.97 ng/mL; cited from earlier work
[2] = Plasma concentrations of tamoxifen and its metabolites by LC-MS/MS in breast cancer patients on adjuvant tamoxifen; format: in vivo, human; conditions: for Plasma concentration (median + IQR): 81 Ethiopian breast cancer patients, tamoxifen 20 mg/day for at least three months; for MR E/NDM: listed as E
Procedure: This study was conducted at the radiotherapy center of Tikur Anbessa specialized hospital, Addis Ababa University, Addis Ababa, Ethiopia. A total of 81 female breast cancer patients who were on adjuvant tamoxifen were enrolled. These patients had completed a full course of chemotherapy and were on tamoxifen 20 mg/day for at least three months. None of the study participants were taking any known CYP2D6 enzyme inhibitor as co-medication. The study protocol was approved by the Institutional Review Board (IRB) of the College of Health Sciences, Addis Ababa University (AAU) (Ref No: 011/16/2016), the Armauer Hansen Research Institute Ethical Review Committee (AAERC) (Ref No: PO26/16) and the Ethiopian National Research Ethics Review Committee (NRERC) (Ref No: 3.10/235/2017). Signed informed consent was obtained from individual study participants prior to study enrolment. Patients’ demographic, clinical and tumor characteristics including age, menopausal status, performance status, weight, height, body mass index (BMI), histologic type of the tumor, degree of differentiation, tumor size, lymph node involvement, hormone receptor status and co-morbidity status were collected.
Blood samples were collected in EDTA tube, centrifuged at 2500 g for 10 minutes, and the separated plasma was stored at −80 °C until analysis. Tamoxifen (Tam) and its major metabolites N-desmethyltamoxifen (NDM), (Z)-4-hydroxytamoxifen (4-HT), and (Z)-endoxifen (E) were quantified in the TDM Laboratory, Department of Clinical Pharmacology, Karolinska Institutet (Stockholm, Sweden), by ultra-high-performance liquid chromatography (UHPLC) followed by electrospray tandem mass spectrometry (LC-MS/MS). Briefly, 400 µL internal standard solution (containing 2 ng/mL of Z/E-endoxifen-d5, and 4-OH-tamoxifen-d5, and 20 ng/mL of N-desmethyl-tamoxifen-d5, and tamoxifen-d5) was added to 200 µL of thawed plasma samples and mixed for 10 minutes in a micro plate shaker (Vx-2400 Multitube mixer, Troemner, Philadelphia, USA), followed by centrifugation at 3400 rpm at 4 °C for 10 min. The supernatant was then transferred to new glass vial and evaporated to dryness using vacuum centrifuge. The residue was dissolved in 50 µL methanol over a microplate shaker for 10 min and the resulting solution was then centrifuged at 3400 rpm for 10 min at 4 °C. Ten microliter (10 µL) of the solution was injected into the LC system (Dionex Ultimate 3000, UHPLC focused, Thermo Scientific, California, USA) coupled with a mass spectrometer (TSQ Quantiva, Thermo Scientific). Separation occurred on an Accucore C-18 column (150 × 2.1 mm, Thermo Scientific). The mobile phase for gradient elution consisted of solution A (10 mmol/L ammonium formate with 0.005% formic acid in water) and solution B (10 mmol/L ammonium formate with 0.005% formic acid in 99% methanol). The LC conditions were: column oven temperature of 40 °C, flow rate of 0.50 mL/min, autosampler temperature of 10 °C. Detection was in positive ion mode using electrospray ionization and monitored using Trace Finder software (Thermo Scientific). Under this condition, the retention times were 3.25, 3.26, 3.38, 4.03, and 4.11 min for E-endoxifen, Z-endoxifen, 4-OH-tamoxifen, N-desmethyltamoxifen, and tamoxifen, respectively. Calibration curves were constructed by plotting the ratio of the area of the compound and the internal standard against the standard analyte concentration. Three quality control (QC) samples involving, (i) low-level QC [QCL] (0.3 ng/mL of E and 4-HT and 3 ng/mL of NDM and Tam, (ii) mid-level QC [QCM] (8 ng/mL of E and 4-HT and 80 ng/mL of NDM and Tam), and (iii) high level QC [QCH] (80 ng/mL of E and 4-HT and 800 ng/mL of NDM and Tam) were also included at each run.
Descriptive statistics were computed to explore the demographic characteristics, clinical profiles, genotype frequencies of participants. Chi-square test was used to compare the observed and expected genotype frequency according to Hardy–Weinberg equilibrium. […]

[3] = cited from earlier work
estrogen receptor (ER) = tested on: estrogen receptor (ER); parameters: method as in PMID 21451508; conditions: endoxifen level 13 nM; cited from earlier work
[4] = ABCB1 c.4036A>G (rs3842) wild type genotype
[5] = UGT2B15 c.1568A>C (rs4148269) wild type genotype
[6] = carriers of the G allele for ABCB1 c.4036A>G (rs3842)

Median endoxifen concentration relative to 4-HT ([2]; 7.94 vs 3.04 ng/mL): 2.6 times
Plasma concentration (median + IQR) [2]: 7.94 (4.68–13.75) ng/mL
Plasma concentration (median + IQR) ([2]; listed as endoxifen): 7.94 ng/mL
Metabolic ratio of endoxifen to 4-hydroxy-tamoxifen, MR E/4-HT (median + IQR) ([2]; 81 patients, plasma): 2.85 (2.10–3.73)
Metabolic ratio of endoxifen to N-desmethyl-tamoxifen, MR E/NDM (median + IQR) ([2]; 81 patients, plasma): 0.038 (0.021–0.06)
MR E/4-HT [2, 4]: 3.02
MR E/NDM [2, 4]: 0.041
Patients with low endoxifen concentration (<5.9 ng/mL) / patients in group ([2]; CYP2D6 IM/IM diplotype): 1/1
Patients with low endoxifen concentration (<5.9 ng/mL) / patients in group ([2]; CYP2D6 IM/PM diplotype): 3/3
Proportion of patients with low endoxifen concentration (<5.9 ng/mL) ([2]; CYP2D6 NM/IM diplotype (5/12)): 41.7%
Proportion of patients with low endoxifen concentration (<5.9 ng/mL) ([2]; CYP2D6 NM/NM diplotype (11/35)): 31.4%
Proportion of patients with low endoxifen concentration (<5.9 ng/mL) ([2]; CYP2D6 NM/PM diplotype (6/9)): 66.7%
Patients with low endoxifen concentration (<5.9 ng/mL) / patients in group ([2]; CYP2D6 PM/PM diplotype): 1/1
Median E/4-HT ratio [2, 5]: 2.06
Proportion of patients with low endoxifen concentration (<5.9 ng/mL) ([2]; all 81 patients): 35.8%
Median E/4-HT ratio ([2]; carriers of C allele for UGT2B15 c.1568A>C (rs4148269)): 2.96
MR E/4-HT [2, 6]: 2.52
MR E/NDM [2, 6]: 0.022
SMILES: CC/C(=C(\c1ccc(O)cc1)c1ccc(OCCNC)cc1)c1ccccc1 [Z-Endoxifen, (Z)-endoxifen]
Lower risk of additional breast cancer events [1]: 30%
Proportion of PMs still able to generate therapeutic concentrations of endoxifen ([3]; CYP2D6 PMs, threshold 5.9 ng/mL): 24%
Proportion of CYP2D6 PMs below endoxifen level of 13 nM ([3]; CYP2D6 poor metabolizers): 93%
Endoxifen plasma concentration lower than without CYP2D6 inhibitors ([3]; IMs on CYP2D6 inhibitors vs IMs not on CYP2D6 inhibitors): 38%
Endoxifen plasma concentration lower than without CYP2D6 inhibitors ([3]; NMs taking CYP2D6 inhibitors vs NMs not on CYP2D6 inhibitors): 58%
Proportion of patients unable to attain therapeutic threshold for endoxifen ([3]; Sweden): 30%
Proportion of patients unable to attain therapeutic threshold for endoxifen ([3]; U.S.): 20%
Occupancy of the estrogen receptor (ER) in vitro (estrogen receptor (ER)): 90%

Plasma concentration (median + IQR) [2]: 3.04 (2.15–4.0) ng/mL
Plasma concentration (median + IQR) ([2]; listed as 4-HT): 3.04 ng/mL
Metabolic ratio of 4-Hydroxy-tamoxifen to tamoxifen, MR 4-HT/Tam (median + IQR) ([2]; 81 patients, plasma): 0.022 (0.016–0.029)
SMILES: CC/C(=C(\c1ccc(O)cc1)c1ccc(OCCN(C)C)cc1)c1ccccc1 [4-Hydroxy-tamoxifen, 4-hydroxy-tamoxifen]

Plasma concentration (median + IQR) [2]: 257 (185.5–343) ng/mL
Metabolic ratio of N-desmethyl-tamoxifen to tamoxifen, MR NDM/Tam (median + IQR) ([2]; human, in vivo): 1.81 (1.51–2.26)
SMILES: CC/C(=C(\c1ccccc1)c1ccc(OCCNC)cc1)c1ccccc1 [N-Desmethyl-tamoxifen, N-desmethyltamoxifen]

Plasma concentration (median + IQR) [2]: 138 (105–200.5) ng/mL
Median plasma concentration [2, 5]: 173.8 ng/mL
Median plasma concentration ([2]; patients with at least one variant allele for UGT2B15 c.1568A>C (rs4148269)): 125.9 ng/mL
Plasma tamoxifen concentration of all included patients ([2]; the 81 patients included in the analysis): > 150 nM
SMILES: CC/C(=C(\c1ccccc1)c1ccc(OCCN(C)C)cc1)c1ccccc1 [Tamoxifen]

Source: publication PMC6770728, “CYP2D6 Genotype Predicts Plasma Concentrations of Tamoxifen Metabolites in Ethiopian Breast Cancer Patients” (Cancers, 2019)
